Laboratory results: paper PMC11594175 (2024)

System: HD3 with inactivated substrate (rA to dA at cleavage site) (DNA, ribozyme, dA in place of rA at the cleavage site of the substrate strand) CATCTCTTAACGGGGCTGTGCGGCTAGGAAGTAATAGTGAG/CTCACTATAGGAAGAGATG
Test: CD titration at 267 nm
Details: 500 mM Na+ (NaCl), 500 mM K+ (KCl), no Mg2+; 50 mM HEPES pH 7.5, 0.5 mM EDTA, 25 °C; 30 µM DNA; 0-10 mM histidine

Ka(CD): ~ 2.0 × 10^3 M^-1
Compound: N[C@@H](Cc1cnc[nH]1)C(=O)O
